Experimental data reported in PubChem BioAssay (NCI).
Where “and” joins values, the source holds several entries; their conditions need not be identical. Equal values may be shown once.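 Compound exposure: 48 hours, 5 concentrations, 96-well plates. GI50 marks 50% less growth. The concentration for full growth arrest is given as TGI.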

Key:
Assay in all cases: inhibition of tumour cell growth, NCI panel, 48 h
A498 renal = test system: A498 renal
COLO 205 colon = test system: COLO 205 colon
HCT-116 colon = test system: HCT-116 colon
LOX IMVI melanoma = test system: LOX IMVI melanoma
M14 melanoma = test system: M14 melanoma
MOLT-4 leukemia = test system: MOLT-4 leukemia
U251 CNS = test system: U251 CNS
HOP-92 NSCLC = test system: HOP-92 NSCLC
PC-3 prostate = test system: PC-3 prostate
MCF7 breast = test system: MCF7 breast

| SMILES | TGI (A498 renal) | TGI (COLO 205 colon) | TGI (HCT-116 colon) | TGI (LOX IMVI melanoma) | TGI (M14 melanoma) | TGI (MOLT-4 leukemia) | TGI (U251 CNS) | GI50 (A498 renal) | GI50 (COLO 205 colon) | GI50 (HCT-116 colon) | GI50 (HOP-92 NSCLC) | TGI (HOP-92 NSCLC) | GI50 (LOX IMVI melanoma) | GI50 (M14 melanoma) | GI50 (MOLT-4 leukemia) | GI50 (PC-3 prostate) | TGI (PC-3 prostate) | GI50 (U251 CNS) | GI50 (MCF7 breast) | TGI (MCF7 breast) |
| --- | --- | --- | --- | --- | --- | --- | --- | --- | --- | --- | --- | --- | --- | --- | --- | --- | --- | --- | --- | --- |
| COC(=O)/C(=N\NC(=O)C[N+](C)(C)C)C(C(=O)OC)C(=O)C(=O)Nc1ccccc1C(N)=O (configuration not stated) | > 100 µM | > 100 µM | > 100 µM | > 100 µM | > 100 µM | > 100 µM | > 100 µM |  |  |  |  |  |  |  |  |  |  |  |  |  |
| O=C1c2cccc(NCCN=Cc3cc([N+](=O)[O-])ccc3O)c2C(=O)c2c(NCCN=Cc3cc([N+](=O)[O-])ccc3O)cccc21 | 31.6 µM | 20.2 µM | 81.5 µM | 29.1 µM | > 100 µM | 16.7 µM | 19.7 µM | 3.73 µM | 1.78 µM | 1.28 µM | 3.03 µM | 84.1 µM | 2.62 µM | 26.8 µM | 0.648 µM | 3.25 µM | > 100 µM | 2.65 µM |  |  |
| C#CC1(O)C(COP(=O)(O)OC(COCCCCCCCCCCCCCCCCCC)COP(=O)(O)OCC2OC(n3cc(F)c(=O)[nH]c3=O)CC2O)OC(n2ccc(N)nc2=O)C1O (configuration not stated) | 14 µM and 5.12 µM | 1.99 µM and 6.07 µM | > 100 µM | 7.25 µM and 37.7 µM | 24.3 µM and 2.74 µM | > 100 µM | 17.2 µM and 20.6 µM | 0.389 µM and 0.189 µM |  | < 0.024 µM and 0.142 µM | 33.4 µM | 10.6 µM and > 95.6 µM |  | 1.53 µM and 0.218 µM |  | 0.947 µM and 0.417 µM | 24.3 µM and 11.4 µM | < 0.0428 µM and 0.177 µM |  |  |
| COc1cccc2c1ccc1nc3cccc(C(=O)N[C@H](C)CN(C)C)c3nc12 | 0.235 µM | 0.282 µM | 0.508 µM | 0.55 µM | 0.339 µM | 4.85 µM | 8.28 µM | 0.0793 µM | 0.0646 µM | 0.0379 µM |  |  | 0.0474 µM | 0.138 µM | 0.0454 µM | 0.0819 µM | 2.13 µM | 0.0441 µM | 0.0341 µM | 1.58 µM |
| CCC1CN2C(=N1)c1ccccc1-c1cc(Cl)ccc12 (configuration not stated) | 12.1 µM | 12.6 µM | 10.6 µM | 4.44 µM | 10.4 µM | 7.16 µM | 11.6 µM | 3.01 µM | 3.21 µM | 2.53 µM |  |  | 1.81 µM | 3.13 µM | 2.51 µM | 2.82 µM | 11.8 µM | 3.18 µM | 2.45 µM | 14.1 µM |
| O=c1[nH]nc2ccccc2c1Cc1ccccc1 | > 100 µM | > 100 µM | > 100 µM | > 100 µM | > 100 µM | > 100 µM | > 100 µM |  |  |  |  | > 100 µM |  |  |  |  |  |  |  |  |
| CCOC(=O)c1c2c(n(Cc3ccc(Cl)cc3Cl)c1C)-c1nc[nH]c1C(=O)C2=O | 36.1 µM | 32.1 µM | 5.66 µM | 13.7 µM | 27.8 µM | 3.97 µM | 19.5 µM | 19.7 µM | 17.4 µM | 2.16 µM | 1.28 µM | 2.75 µM | 3.54 µM | 14.7 µM | 1.8 µM |  |  | 7.01 µM |  |  |
| Clc1ccc(N=Nc2nc3ccccc3nc2N=Nc2ccc(Cl)cc2Cl)c(Cl)c1 | > 100 µM | > 100 µM | > 100 µM | > 100 µM |  | > 100 µM | > 100 µM |  |  |  |  | > 100 µM |  |  |  |  |  |  |  |  |
| c1ccc(C(c2ccccc2)c2cccnc2)cc1 | > 100 µM | > 100 µM | > 100 µM | > 100 µM | > 100 µM |  | > 100 µM |  |  |  |  |  |  |  |  |  |  |  |  |  |
| Cc1ccc(SSc2ccc(C)cc2C(=O)O)c(C(=O)O)c1 | > 100 µM | > 100 µM |  | > 100 µM |  | > 100 µM | > 100 µM |  |  |  |  | > 100 µM |  |  |  |  |  |  |  |  |
| COc1cc([C@@H]2c3cc4c(cc3[C@@H](OC(=O)c3ccc(N)cc3)C3COC(=O)[C@@H]32)OCO4)cc(OC)c1O (some centres not stated) | 31.5 µM | 18.9 µM | > 95 µM | 50.7 µM | > 95 µM | 67.4 µM | 28.7 µM |  |  |  |  | 20.7 µM |  |  |  |  |  |  |  |  |
| C[C@]12CCC(=O)C=C1CC[C@@H]1C2CC[C@]2(C)Nc3c(cnn3-c3ccccc3)CC12 (some centres not stated) | > 100 µM |  | > 100 µM |  | > 100 µM | > 100 µM | > 100 µM |  |  |  |  |  |  |  |  |  |  |  |  |  |
| COCC(O)Cn1ccnc1[N+](=O)[O-] (configuration not stated) |  | > 100 µM | > 100 µM | > 100 µM | > 100 µM | > 100 µM | > 100 µM |  |  |  |  |  |  |  |  |  |  |  |  |  |
| CCOC1=C2C(=O)OC(=O)C2C2CCCCC2=C1 (configuration not stated) |  | > 100 µM | > 100 µM | > 100 µM | > 100 µM | > 100 µM | > 100 µM |  |  |  |  | > 100 µM |  |  |  |  |  |  |  |  |
| CC(C)CCCC(C)[C@H]1CCC2[C@@H]3CCC4Nc5nocc5C[C@]4(C)C3CC[C@@]21C (some centres not stated) | 36.1 µM | 20.4 µM | 32.4 µM | 4.95 µM | 41.8 µM | 46.5 µM | 32 µM |  |  |  |  |  |  |  |  |  |  |  |  |  |
